Assay results from patent publication US8889192B2, “Magnetic nanomedicine for inhibiting/treating human prostate cancer” (priority 2011, dated 2014).

Legend:
[1] = tested on: tubulin protein; test: Stability analysis: residual activity by tubulin protein assay after storage; settings: stored at 25° C. for 14 days
[2] = tested on: human prostate cancer cells PC3; test: Growth of PC3 cells, XTT cell counting; assay type: cell-based; settings: 10 μM, 48 hours, no magnetic field
Protocol: Cell cultivation: Place 150 μL of a mixture liquid containing 10000 human prostate cancer cells PC3 into every well of a 96-well culture plate. […] Agent addition: 24 hours later, separately mix […] magnetic nanocomposite (600 μg/mL), Taxol, and […]/Taxol magnetic nanomedicine with a RPMI1640 medium to form mixed solutions. […] Cell counting: […]

[3] = tested on: α-tubulin; test: Content of α-tubulin in CWR22R cells, Western method; settings: 10 μM, 24 hours, no magnetic field
[4] = tested on: human prostate cancer cells CWR22R; test: Growth of CWR22R cells, XTT cell counting; assay type: cell-based; settings: 10 μM, 48 hours, no magnetic field
Protocol: Cell cultivation: Place 150 μL of a mixture liquid containing 10000 human prostate cancer cells CW[…] into every well of a 96-well culture plate. […] Agent addition: 24 hours later, separately mix […] magnetic nanocomposite (600 μg/mL), Taxol, and […]/Taxol magnetic nanomedicine with a RPMI1640 medium to form mixed solutions. […] Cell counting: Remove RPMI1640 and add 120 μL of an XTT reaction liquid to the wells.

[5] = tested on: tubulin protein
[6] = physchem

CC(=O)O[C@H]1C(=O)[C@@]2(C)[C@H]([C@H](OC(=O)c3ccccc3)[C@]3(O)C[C@H](OC(=O)[C@H](O)[C@@H](NC(=O)c4ccccc4)c4ccccc4)C(C)=C1C3(C)C)[C@]1(OC(C)=O)CO[C@@H]1C[C@@H]2O [Taxol]
activity after storage [1]: has lost its activity | PC3 growth-inhibition ratio [2]: 25% | α-tubulin inhibition ratio [3]: 52% | CWR22R growth-inhibition ratio [4]: 41% | half life [5]: 32 h | half-life [6]: 19 h
